Test results taken from US20260159618A1, “COMPOUND, POLYMERIZABLE COMPOSITION, POLYMER, HOLOGRAPHIC RECORDING MEDIUM, OPTICAL MATERIAL, AND OPTICAL COMPONENT” (Mitsubishi Chemical Corporation, priority 2022, published 2026).
Like-named read-outs stand apart in the source and are kept apart here.

Columns and labels:
[1] = Refractive index measurement of polymerizable monomer (Kalnew precision refractometer); assay type: physicochemical; set-up: key to Refractive Index (dash symbol): ⊚: 0.019 or more; ◯: 0.015 or more and less than 0.019; Δ: 0.010 or more and less than 0.015; x: less than 0.010; —: impossible to measure; details: for Refractive Index: 23° C., helium lamp d-line (587.6 nm), calculated for 100% by mass from calibration curve of 10 and 20% by mass test solutions; for Refractive Index (dash symbol): sample not suitable for refractive index measurement
Experimental: The refractive index of the compound M-1 was measured using the following method. The refractive indexes of the polymerizable monomers produced in the Examples and Comparative Examples were also measured using the same method.
A test solution was prepared by dissolving the sample in a mixed solution of 3-phenoxybenzyl acrylate and trimethylolpropane trimethacrylate in a mass ratio of 4:1 to obtain the specified concentration.
Two types of test solutions were prepared, with sample concentrations of 10% by mass and 20% by mass.
The refractive index of each test solution was measured using a Kalnew precision refractometer (manufactured by Shimadzu Corporation, product name: KPR-2000). The temperature of the test solution was 23° C., and the measurement wavelength was helium lamp d-line (587.6 nm). Based on the measurement results, a calibration curve showing the correlation between sample concentration and refractive index was created, and the refractive index when the sample concentration was 100% by mass was calculated from the obtained calibration curve, and was taken as the refractive index of the sample.

[2] = Solubility in Duranate TSS-100, visual observation; assay type: physicochemical; details: 0.63 g monomer dissolved in 2.53 g Duranate TSS-100, visually observed
Experimental: (§1) When 0.63 g of polymerizable monomers M-1 to M-11 and R-1 to R-4 were dissolved in 2.53 g of Duranate (registered trademark) TSS-100, the state of the solution was visually observed and the solubility was evaluated as ∘ (completely dissolved), Δ (cloudy), or x (solid remaining in solution). In addition, the state of each solution was visually observed when it was stored at room temperature for 10 days and the storage stability was evaluated as ∘ (completely dissolved), Δ (cloudy), or x (solid remaining in solution).

[3] = Storage stability of the TSS-100 solution, visual observation; assay type: physicochemical; set-up: key: ∘: completely dissolved; Δ: cloudy; x: solid remaining in solution; details: solution in Duranate TSS-100 stored at room temperature for 10 days, visually observed
Experimental: as §1

[4] = prior-art compounds, background art; cited from earlier work

| Structure (SMILES) | Refractive Index [1] | Solubility [2] | Storage Stability [3] | Refractive Index (dash symbol) [1] | Refractive Index [4] |
| --- | --- | --- | --- | --- | --- |
| C=C(C)C(=O)OCCNC(=O)OCCOc1c(-c2cc3ccccc3c3ccccc23)cc(-c2cc3ccccc3c3ccccc23)cc1-c1cc2ccccc2c2ccccc12 [Compound M-8] | 1.7042 | ◯ | ◯ |  |  |
| C=CC(=O)Oc1c(-c2cccc3c2sc2ccccc23)cc(-c2cccc3c2sc2ccccc23)cc1-c1cccc2c1sc1ccccc12 [Compound R-2, reference compound] | 1.7056 |  | Δ |  |  |
| C=CC(=O)OCCCCOc1c(-c2cccc3c2sc2ccccc23)cc(-c2cccc3c2sc2ccccc23)cc1-c1cccc2c1sc1ccccc12 [Compound R-4, reference compound] |  |  |  | — |  |
| C=C(C)C(=O)OCCNC(=O)Oc1c(-c2ccc3ccccc3c2)cc(-c2ccc3ccccc3c2)cc1-c1ccc2ccccc2c1 [Compound M-5] | 1.6798 | ◯ | ◯ |  |  |
| C=CC(=O)OCCNC(=O)Oc1c(-c2cccc3c2sc2ccccc23)cc(-c2cccc3c2sc2ccccc23)cc1-c1cccc2c1sc1ccccc12 [Compound M-3] | 1.6891 | ◯ | ◯ |  |  |
| C=CC(=O)OCCOc1c(-c2cccc3c2sc2ccccc23)cc(-c2cccc3c2sc2ccccc23)cc1-c1cccc2c1sc1ccccc12 [Compound R-3, reference compound] |  |  |  | — |  |
| C=CC(=O)OCCOc1ccc(C2(c3ccc(OCCOC(=O)C=C)cc3)c3ccccc3-c3ccccc32)cc1 [9,9-bis[4-(2-acryloyloxyethoxy)phenyl]fluorene] |  |  |  |  | about 1.62 |
| C=CC(=O)OCCNC(=O)Oc1ccc(-c2cccc3c2sc2ccccc23)cc1-c1cccc2c1sc1ccccc12 [Compound R-1, reference compound] | 1.6762 |  | Δ |  |  |
| C=CC(=O)OCCCOc1c(-c2cc3ccccc3c3ccccc23)cc(-c2cc3ccccc3c3ccccc23)cc1-c1cc2ccccc2c2ccccc12 [Compound M-11] | 1.7316 | ◯ | ◯ |  |  |
| C=C(C)C(=O)OCCNC(=O)Oc1c(-c2cccc3c2sc2ccccc23)cc(-c2cccc3c2sc2ccccc23)cc1-c1cccc2c1sc1ccccc12 [Compound M-1] | 1.6818 | ◯ | ◯ |  |  |
| C=C(C)C(=O)OCCNC(=O)Oc1c(-c2cc3ccccc3c3ccccc23)cc(-c2cc3ccccc3c3ccccc23)cc1-c1cc2ccccc2c2ccccc12 [Compound M-2] | 1.6898 | ◯ | ◯ |  |  |
| C=CC(=O)OCCOc1c(-c2cc3ccccc3c3ccccc23)cc(-c2cc3ccccc3c3ccccc23)cc1-c1cc2ccccc2c2ccccc12 [Compound M-10] | 1.7323 | ◯ | ◯ |  |  |
| C=CC(=O)OCCNC(=O)Oc1c(-c2cc3ccccc3c3ccccc23)cc(-c2cc3ccccc3c3ccccc23)cc1-c1cc2ccccc2c2ccccc12 [Compound M-4] | 1.6894 | ◯ | ◯ |  |  |
| C=C(C)C(=O)OCCOCCNC(=O)OCCOc1c(-c2cc3ccccc3c3ccccc23)cc(-c2cc3ccccc3c3ccccc23)cc1-c1cc2ccccc2c2ccccc12 [Compound M-9] | 1.6975 | ◯ | ◯ |  |  |
| C=CC(=O)OCCNC(=O)OCCOc1c(-c2cc3ccccc3c3ccccc23)cc(-c2cc3ccccc3c3ccccc23)cc1-c1cc2ccccc2c2ccccc12 [Compound M-7] | 1.7104 | ◯ | ◯ |  |  |
| C=C(C)C(=O)OCCOCCNC(=O)Oc1c(-c2cc3ccccc3c3ccccc23)cc(-c2cc3ccccc3c3ccccc23)cc1-c1cc2ccccc2c2ccccc12 [Compound M-6] | 1.7013 | ◯ | ◯ |  |  |
